The values below come from ChEMBL document CHEMBL2086297, “Reduced pulmonary surfactant interaction of daptomycin analogs via tryptophan replacement with alternative amino acids” (2012).

For orientation: MIC means the least concentration at which growth counts as inhibited.

In brackets after ≈: the same amount, converted by molar mass.

Common to all, as to assay type: functional
The subject of assay [1] is Staphylococcus aureus. Put plainly: Antibacterial activity against methicillin-susceptible Staphylococcus aureus ATCC 29213 grown on calcium supplemented Mueller-Hinton broth by broth microdilution method. Background: Dilution methods test growth across graded concentrations, often in twofold steps.
Assay [2] has as its system Staphylococcus aureus. The assay can be described thus: Antibacterial activity against methicillin-susceptible Staphylococcus aureus ATCC 29213 by broth microdilution method in presence of 1% pulmonary surfactant. The conditions noted are these: ATCC 29213, Pulmonary surfactant.
In assay [3] the test system is Staphylococcus aureus. The assay can be described thus: Antibacterial activity against methicillin-susceptible Staphylococcus aureus ATCC 29213 by broth microdilution method in presence of 5% pulmonary surfactant. As to conditions: ATCC 29213, Pulmonary surfactant.
Assay [4] deals with Staphylococcus aureus. Put plainly: Antibacterial activity against methicillin-susceptible Staphylococcus aureus ATCC 29213 by broth microdilution method in presence of 4% human serum albumin.

As for `CCCCCCCCCC(=O)N[C@@H](Cc1ccc(OC)cc1OC)C(=O)N[C@@H](CC(N)=O)C(=O)N[C@@H](CC(=O)O)C(=O)N[C@@H]1C(=O)NCC(=O)N[C@@H](CCCN)C(=O)N[C@@H](CC(=O)O)C(=O)N[C@H](C)C(=O)N[C@@H](CC(=O)O)C(=O)NCC(=O)N[C@H](CO)C(=O)N[C@@H]([C@@H](C)CC(=O)O)C(=O)N[C@@H](CC(=O)c2ccccc2N)C(=O)O[C@@H]1C`, the MIC in the assay with Staphylococcus aureus [1] was determined as 8 µg/mL (≈ 4.87 µM); with Staphylococcus aureus [2] it was 8 µg/mL; in the assay on Staphylococcus aureus [3] it was 8 µg/mL; in the assay on Staphylococcus aureus [4], 16 µg/mL.
As to `CCCCCCCCCC(=O)N[C@@H](Cc1cccc(OC)c1)C(=O)N[C@@H](CC(N)=O)C(=O)N[C@@H](CC(=O)O)C(=O)N[C@@H]1C(=O)NCC(=O)N[C@@H](CCCN)C(=O)N[C@@H](CC(=O)O)C(=O)N[C@H](C)C(=O)N[C@@H](CC(=O)O)C(=O)NCC(=O)N[C@H](CO)C(=O)N[C@@H]([C@@H](C)CC(=O)O)C(=O)N[C@@H](CC(=O)c2ccccc2N)C(=O)O[C@@H]1C`, the MIC stood at 2 µg/mL (≈ 1.24 µM) in the assay on Staphylococcus aureus [1], 2 µg/mL with Staphylococcus aureus [2], 4 µg/mL with Staphylococcus aureus [3] and 4 µg/mL in the assay with Staphylococcus aureus [4].
Consider `CCCCCCCCCC(=O)N[C@@H](CCc1ccc(OC)cc1)C(=O)N[C@@H](CC(N)=O)C(=O)N[C@@H](CC(=O)O)C(=O)N[C@@H]1C(=O)NCC(=O)N[C@@H](CCCN)C(=O)N[C@@H](CC(=O)O)C(=O)N[C@H](C)C(=O)N[C@@H](CC(=O)O)C(=O)NCC(=O)N[C@H](CO)C(=O)N[C@@H]([C@@H](C)CC(=O)O)C(=O)N[C@@H](CC(=O)c2ccccc2N)C(=O)O[C@@H]1C`, for which the MIC came to 2 µg/mL (≈ 1.23 µM) in the assay with Staphylococcus aureus [1], 8 µg/mL in the assay on Staphylococcus aureus [2], 32 µg/mL with Staphylococcus aureus [3] and 8 µg/mL in the assay on Staphylococcus aureus [4].
On to `CCCCCCCCCC(=O)N[C@@H](Cc1ccc(N2CCCC2)cc1)C(=O)N[C@@H](CC(N)=O)C(=O)N[C@@H](CC(=O)O)C(=O)N[C@@H]1C(=O)NCC(=O)N[C@@H](CCCN)C(=O)N[C@@H](CC(=O)O)C(=O)N[C@H](C)C(=O)N[C@@H](CC(=O)O)C(=O)NCC(=O)N[C@H](CO)C(=O)N[C@@H]([C@@H](C)CC(=O)O)C(=O)N[C@@H](CC(=O)c2ccccc2N)C(=O)O[C@@H]1C`, for which the MIC came to 1 µg/mL (≈ 0.606 µM) in the assay with Staphylococcus aureus [1], 4 µg/mL with Staphylococcus aureus [2], 4 µg/mL in the assay on Staphylococcus aureus [3] and 32 µg/mL in the assay with Staphylococcus aureus [4].
On to `CCCCCCCCCC(=O)N[C@@H](Cc1ccc(N(C)C)cc1)C(=O)N[C@@H](CC(N)=O)C(=O)N[C@@H](CC(=O)O)C(=O)N[C@@H]1C(=O)NCC(=O)N[C@@H](CCCN)C(=O)N[C@@H](CC(=O)O)C(=O)N[C@H](C)C(=O)N[C@@H](CC(=O)O)C(=O)NCC(=O)N[C@H](CO)C(=O)N[C@@H]([C@@H](C)CC(=O)O)C(=O)N[C@@H](CC(=O)c2ccccc2N)C(=O)O[C@@H]1C`, for which the MIC in the assay with Staphylococcus aureus [1] amounted to 2 µg/mL (≈ 1.23 µM); in the assay on Staphylococcus aureus [2] it was 2 µg/mL; in the assay with Staphylococcus aureus [3], 2 µg/mL; in the assay on Staphylococcus aureus [4], 4 µg/mL.
For the compound `CCCCCCCCCC(=O)N[C@@H](Cc1c[nH]c2ccc(OC)cc12)C(=O)N[C@@H](CC(N)=O)C(=O)N[C@@H](CC(=O)O)C(=O)N[C@@H]1C(=O)NCC(=O)N[C@@H](CCCN)C(=O)N[C@@H](CC(=O)O)C(=O)N[C@H](C)C(=O)N[C@@H](CC(=O)O)C(=O)NCC(=O)N[C@H](CO)C(=O)N[C@@H]([C@@H](C)CC(=O)O)C(=O)N[C@@H](CC(=O)c2ccccc2N)C(=O)O[C@@H]1C`, the MIC in the assay on Staphylococcus aureus [1] worked out at 4 µg/mL (≈ 2.42 µM); in the assay with Staphylococcus aureus [2] it was 16 µg/mL; in the assay on Staphylococcus aureus [3], 32 µg/mL; in the assay with Staphylococcus aureus [4], 8 µg/mL.
On to `CCCCCCCCCC(=O)N[C@@H](Cc1ccc(OC)cc1)C(=O)N[C@@H](CC(N)=O)C(=O)N[C@@H](CC(=O)O)C(=O)N[C@@H]1C(=O)NCC(=O)N[C@@H](CCCN)C(=O)N[C@@H](CC(=O)O)C(=O)N[C@H](C)C(=O)N[C@@H](CC(=O)O)C(=O)NCC(=O)N[C@H](CO)C(=O)N[C@@H]([C@@H](C)CC(=O)O)C(=O)N[C@@H](CC(=O)c2ccccc2N)C(=O)O[C@@H]1C`, for which the MIC in the assay with Staphylococcus aureus [1] came to 2 µg/mL (≈ 1.24 µM); in the assay on Staphylococcus aureus [2], 2 µg/mL; in the assay with Staphylococcus aureus [3] it was 2 µg/mL; in the assay with Staphylococcus aureus [4] it was 8 µg/mL.
As to `CCCCCCCCCC(=O)N[C@@H](Cc1ccc(C(F)(F)F)cc1)C(=O)N[C@@H](CC(N)=O)C(=O)N[C@@H](CC(=O)O)C(=O)N[C@@H]1C(=O)NCC(=O)N[C@@H](CCCN)C(=O)N[C@@H](CC(=O)O)C(=O)N[C@H](C)C(=O)N[C@@H](CC(=O)O)C(=O)NCC(=O)N[C@H](CO)C(=O)N[C@@H]([C@@H](C)CC(=O)O)C(=O)N[C@@H](CC(=O)c2ccccc2N)C(=O)O[C@@H]1C`, the MIC is 2 µg/mL (≈ 1.21 µM) in the assay with Staphylococcus aureus [1], 32 µg/mL in the assay on Staphylococcus aureus [2], > 32 µg/mL in the assay with Staphylococcus aureus [3] and 8 µg/mL in the assay on Staphylococcus aureus [4].
Regarding `CCCCCCCCCC(=O)N[C@@H](Cc1csc2ccccc12)C(=O)N[C@@H](CC(N)=O)C(=O)N[C@@H](CC(=O)O)C(=O)N[C@@H]1C(=O)NCC(=O)N[C@@H](CCCN)C(=O)N[C@@H](CC(=O)O)C(=O)N[C@H](C)C(=O)N[C@@H](CC(=O)O)C(=O)NCC(=O)N[C@H](CO)C(=O)N[C@@H]([C@@H](C)CC(=O)O)C(=O)N[C@@H](CC(=O)c2ccccc2N)C(=O)O[C@@H]1C`, the MIC was 2 µg/mL (≈ 1.22 µM) with Staphylococcus aureus [1], 8 µg/mL in the assay with Staphylococcus aureus [2], 16 µg/mL with Staphylococcus aureus [3] and 4 µg/mL in the assay on Staphylococcus aureus [4].
Regarding `CCCCCCCCCC(=O)N[C@@H](Cc1ccsc1)C(=O)N[C@@H](CC(N)=O)C(=O)N[C@@H](CC(=O)O)C(=O)N[C@@H]1C(=O)NCC(=O)N[C@@H](CCCN)C(=O)N[C@@H](CC(=O)O)C(=O)N[C@H](C)C(=O)N[C@@H](CC(=O)O)C(=O)NCC(=O)N[C@H](CO)C(=O)N[C@@H]([C@@H](C)CC(=O)O)C(=O)N[C@@H](CC(=O)c2ccccc2N)C(=O)O[C@@H]1C`, the MIC in the assay on Staphylococcus aureus [1] amounted to 4 µg/mL (≈ 2.52 µM); in the assay on Staphylococcus aureus [2] it was 8 µg/mL; in the assay on Staphylococcus aureus [3], 16 µg/mL; in the assay on Staphylococcus aureus [4], 32 µg/mL.
The like results for `CCCCCCCCCC(=O)N[C@@H](Cc1c[nH]c2ccc(F)cc12)C(=O)N[C@@H](CC(N)=O)C(=O)N[C@@H](CC(=O)O)C(=O)N[C@@H]1C(=O)NCC(=O)N[C@@H](CCCN)C(=O)N[C@@H](CC(=O)O)C(=O)N[C@H](C)C(=O)N[C@@H](CC(=O)O)C(=O)NCC(=O)N[C@H](CO)C(=O)N[C@@H]([C@@H](C)CC(=O)O)C(=O)N[C@@H](CC(=O)c2ccccc2N)C(=O)O[C@@H]1C` were, in that order, 0.25 µg/mL (≈ 0.153 µM), 16 µg/mL, > 32 µg/mL and 1 µg/mL.
As for `CCCCCCCCCC(=O)N[C@@H](Cc1ccc(C)cc1)C(=O)N[C@@H](CC(N)=O)C(=O)N[C@@H](CC(=O)O)C(=O)N[C@@H]1C(=O)NCC(=O)N[C@@H](CCCN)C(=O)N[C@@H](CC(=O)O)C(=O)N[C@H](C)C(=O)N[C@@H](CC(=O)O)C(=O)NCC(=O)N[C@H](CO)C(=O)N[C@@H]([C@@H](C)CC(=O)O)C(=O)N[C@@H](CC(=O)c2ccccc2N)C(=O)O[C@@H]1C`, the MIC with Staphylococcus aureus [1] was 1 µg/mL (≈ 0.627 µM); in the assay on Staphylococcus aureus [2] it was 2 µg/mL; in the assay with Staphylococcus aureus [3] it was 8 µg/mL; in the assay with Staphylococcus aureus [4], 8 µg/mL.
On to `CCCCCCCCCC(=O)N[C@@H](Cc1ccc(OC)c(OC)c1)C(=O)N[C@@H](CC(N)=O)C(=O)N[C@@H](CC(=O)O)C(=O)N[C@@H]1C(=O)NCC(=O)N[C@@H](CCCN)C(=O)N[C@@H](CC(=O)O)C(=O)N[C@H](C)C(=O)N[C@@H](CC(=O)O)C(=O)NCC(=O)N[C@H](CO)C(=O)N[C@@H]([C@@H](C)CC(=O)O)C(=O)N[C@@H](CC(=O)c2ccccc2N)C(=O)O[C@@H]1C`, for which the MIC in the assay with Staphylococcus aureus [1] stood at 16 µg/mL (≈ 9.75 µM); in the assay with Staphylococcus aureus [2], 16 µg/mL; in the assay with Staphylococcus aureus [3], 16 µg/mL; in the assay with Staphylococcus aureus [4], 32 µg/mL.
